Assay: xn = mol fraction of the nth substance listed
Settings: 101 kPa, Liquid

COc1cc2c(cc1O)CC1c3c(cc(O)c(OC)c3-2)CCN1C (stereo not drawn) [boldine] + CCCO
mass density [kg/m3]
Settings | x1 = 0.00185 | x1 = 0.00374 | x1 = 0.00565 | x1 = 0.0076 | x1 = 0.00957 | x1 = 0.01158 | x1 = 0.01361
283.15 K | 814.99 | 818.36 | 821.77 | 825.23 | 828.61 | 832.08 | 835.59
288.15 K | 811.04 | 814.41 | 817.81 | 821.26 | 824.65 | 828.12 | 831.61
293.15 K | 807.05 | 810.42 | 813.82 | 817.26 | 820.65 | 824.12 | 827.61
298.15 K | 803.04 | 806.4 | 809.8 | 813.24 | 816.64 | 820.1 | 823.59
303.15 K | 799 | 802.35 | 805.75 | 809.2 | 812.59 | 816.05 | 819.54
308.15 K | 794.92 | 798.27 | 801.67 | 805.12 | 808.5 | 811.96 | 815.45
313.15 K | 790.81 | 794.14 | 797.55 | 800.98 | 804.37 | 807.83 | 811.31
318.15 K | 786.65 | 789.98 | 793.39 | 796.82 | 800.21 | 803.65 | 807.13
323.15 K | 782.43 | 785.77 | 789.17 | 792.6 | 795.99 | 799.42 | 802.91
328.15 K | 778.16 | 781.5 | 784.89 | 788.33 | 791.71 | 795.16 | 798.63
333.15 K | 773.81 | 777.16 | 780.54 | 783.99 | 787.37 | 790.82 | 794.3

COc1cc2c(cc1O)CC1c3c(cc(O)c(OC)c3-2)CCN1C (stereo not drawn) [boldine] + CCCCO
mass density [kg/m3]
Settings | x1 = 0.00228 | x1 = 0.00461 | x1 = 0.00696 | x1 = 0.00936 | x1 = 0.01178 | x1 = 0.01427 | x1 = 0.01678
283.15 K | 820.49 | 823.85 | 827.2 | 830.57 | 833.94 | 837.36 | 840.79
288.15 K | 816.73 | 820.08 | 823.43 | 826.79 | 830.16 | 833.57 | 837
293.15 K | 812.93 | 816.28 | 819.62 | 822.98 | 826.35 | 829.75 | 833.18
298.15 K | 809.11 | 812.45 | 815.8 | 819.15 | 822.52 | 825.92 | 829.34
303.15 K | 805.26 | 808.6 | 811.94 | 815.29 | 818.66 | 822.06 | 825.48
308.15 K | 801.39 | 804.72 | 808.06 | 811.4 | 814.77 | 818.16 | 821.58
313.15 K | 797.47 | 800.81 | 804.14 | 807.48 | 810.84 | 814.23 | 817.64
318.15 K | 793.52 | 796.85 | 800.17 | 803.52 | 806.87 | 810.25 | 813.67
323.15 K | 789.52 | 792.84 | 796.17 | 799.51 | 802.86 | 806.23 | 809.66
328.15 K | 785.47 | 788.79 | 792.11 | 795.45 | 798.79 | 802.17 | 805.59
333.15 K | 781.35 | 784.67 | 787.99 | 791.32 | 794.67 | 798.05 | 801.46

CO [methanol] + COc1cc2c(cc1O)CC1c3c(cc(O)c(OC)c3-2)CCN1C
x2 = 0
Settings | mass density [kg/m3]
283.15 K | 801.08
288.15 K | 796.41
293.15 K | 791.71
298.15 K | 787.01
303.15 K | 782.29
308.15 K | 777.55
313.15 K | 772.78
318.15 K | 767.97
323.15 K | 763.12
328.15 K | 758.23
333.15 K | 753.29

CCCCO [butan-1-ol] + COc1cc2c(cc1O)CC1c3c(cc(O)c(OC)c3-2)CCN1C
x2 = 0
Settings | mass density [kg/m3]
283.15 K | 817.15
288.15 K | 813.38
293.15 K | 809.59
298.15 K | 805.77
303.15 K | 801.92
308.15 K | 798.05
313.15 K | 794.14
318.15 K | 790.19
323.15 K | 786.19
328.15 K | 782.14
333.15 K | 778.03

CCCO [propan-1-ol] + COc1cc2c(cc1O)CC1c3c(cc(O)c(OC)c3-2)CCN1C
x2 = 0
Settings | mass density [kg/m3]
283.15 K | 811.57
288.15 K | 807.62
293.15 K | 803.63
298.15 K | 799.62
303.15 K | 795.58
308.15 K | 791.49
313.15 K | 787.37
318.15 K | 783.22
323.15 K | 779.01
328.15 K | 774.73
333.15 K | 770.39

CCCCCCO [hexan-1-ol] + COc1cc2c(cc1O)CC1c3c(cc(O)c(OC)c3-2)CCN1C
x2 = 0
Settings | mass density [kg/m3]
283.15 K | 827.82
288.15 K | 824.25
293.15 K | 820.65
298.15 K | 817.03
303.15 K | 813.39
308.15 K | 809.71
313.15 K | 806
318.15 K | 802.27
323.15 K | 798.49
328.15 K | 794.67
333.15 K | 790.8

CCCCCO [pentan-1-ol] + COc1cc2c(cc1O)CC1c3c(cc(O)c(OC)c3-2)CCN1C
x2 = 0
Settings | mass density [kg/m3]
283.15 K | 822.42
288.15 K | 818.79
293.15 K | 815.13
298.15 K | 811.45
303.15 K | 807.74
308.15 K | 804.01
313.15 K | 800.24
318.15 K | 796.43
323.15 K | 792.57
328.15 K | 788.67
333.15 K | 784.72

COc1cc2c(cc1O)CC1c3c(cc(O)c(OC)c3-2)CCN1C (stereo not drawn) [boldine] + CCCCCO
mass density [kg/m3]
Settings | x1 = 0.00272 | x1 = 0.00547 | x1 = 0.00826
283.15 K | 825.74 | 829.04 | 832.39
288.15 K | 822.11 | 825.4 | 828.75
293.15 K | 818.44 | 821.73 | 825.07
298.15 K | 814.76 | 818.04 | 821.37
303.15 K | 811.05 | 814.33 | 817.65
308.15 K | 807.31 | 810.58 | 813.91
313.15 K | 803.53 | 806.8 | 810.12
318.15 K | 799.72 | 802.99 | 806.31
323.15 K | 795.87 | 799.13 | 802.45
328.15 K | 791.97 | 795.23 | 798.54
333.15 K | 788.02 | 791.28 | 794.59

CC(C)O [propan-2-ol] + COc1cc2c(cc1O)CC1c3c(cc(O)c(OC)c3-2)CCN1C
x2 = 0
Settings | mass density [kg/m3]
283.15 K | 793.31
288.15 K | 789.22
293.15 K | 785.08
298.15 K | 780.87
303.15 K | 776.6
308.15 K | 772.25
313.15 K | 767.81
318.15 K | 763.28
323.15 K | 758.64
328.15 K | 753.88
333.15 K | 749.01

COc1cc2c(cc1O)CC1c3c(cc(O)c(OC)c3-2)CCN1C (stereo not drawn) [boldine] + CC(C)O
mass density [kg/m3]
Settings | x1 = 0.00187 | x1 = 0.00371 | x1 = 0.00563 | x1 = 0.00735 | x1 = 0.00957 | x1 = 0.01158 | x1 = 0.01364
283.15 K | 796.84 | 800.29 | 803.77 | 807.03 | 810.42 | 814.44 | 818.2
288.15 K | 792.75 | 796.21 | 799.68 | 802.94 | 806.37 | 810.34 | 814.09
293.15 K | 788.61 | 792.06 | 795.53 | 798.79 | 802.25 | 806.19 | 809.91
298.15 K | 784.39 | 787.84 | 791.32 | 794.57 | 798.05 | 801.97 | 805.66
303.15 K | 780.11 | 783.56 | 787.04 | 790.29 | 793.78 | 797.69 | 801.36
308.15 K | 775.77 | 779.22 | 782.69 | 785.94 | 789.45 | 793.35 | 797.01
313.15 K | 771.34 | 774.79 | 778.25 | 781.51 | 785.03 | 788.91 | 792.59
318.15 K | 766.8 | 770.26 | 773.72 | 776.98 | 780.51 | 784.38 | 788.09
323.15 K | 762.17 | 765.62 | 769.08 | 772.35 | 775.88 | 779.76 | 783.56
328.15 K | 757.42 | 760.87 | 764.34 | 767.61 | 771.14 | 775.02 | 778.85
333.15 K | 752.55 | 756.01 | 759.48 | 762.75 | 766.27 | 770.17 | 773.99

CCCCCCCCO [octan-1-ol] + COc1cc2c(cc1O)CC1c3c(cc(O)c(OC)c3-2)CCN1C
x2 = 0
Settings | mass density [kg/m3]
283.15 K | 832.13
288.15 K | 828.71
293.15 K | 825.27
298.15 K | 821.81
303.15 K | 818.33
308.15 K | 814.84
313.15 K | 811.31
318.15 K | 807.76
323.15 K | 804.19
328.15 K | 800.58
333.15 K | 796.93

COc1cc2c(cc1O)CC1c3c(cc(O)c(OC)c3-2)CCN1C (stereo not drawn) [boldine] + CCCCCCCCO
mass density [kg/m3]
Settings | x1 = 0.00398 | x1 = 0.00806 | x1 = 0.01216
283.15 K | 835.34 | 838.57 | 842.06
288.15 K | 831.91 | 835.14 | 838.62
293.15 K | 828.46 | 831.68 | 835.16
298.15 K | 825 | 828.21 | 831.68
303.15 K | 821.52 | 824.72 | 828.18
308.15 K | 818.01 | 821.21 | 824.66
313.15 K | 814.49 | 817.68 | 821.12
318.15 K | 810.93 | 814.12 | 817.55
323.15 K | 807.34 | 810.52 | 813.96
328.15 K | 803.73 | 806.9 | 810.33
333.15 K | 800.08 | 803.24 | 806.66

COc1cc2c(cc1O)CC1c3c(cc(O)c(OC)c3-2)CCN1C (stereo not drawn) [boldine] + CCCCCCO
mass density [kg/m3]
Settings | x1 = 0.00308 | x1 = 0.00633 | x1 = 0.00958
283.15 K | 831.02 | 834.31 | 837.66
288.15 K | 827.44 | 830.73 | 834.07
293.15 K | 823.83 | 827.12 | 830.46
298.15 K | 820.21 | 823.49 | 826.82
303.15 K | 816.56 | 819.84 | 823.16
308.15 K | 812.88 | 816.16 | 819.48
313.15 K | 809.17 | 812.44 | 815.76
318.15 K | 805.43 | 808.7 | 812.01
323.15 K | 801.65 | 804.91 | 808.22
328.15 K | 797.83 | 801.09 | 804.39
333.15 K | 793.97 | 797.22 | 800.51

CCO [ethanol] + COc1cc2c(cc1O)CC1c3c(cc(O)c(OC)c3-2)CCN1C
x2 = 0
Settings | mass density [kg/m3]
283.15 K | 797.96
288.15 K | 793.71
293.15 K | 789.44
298.15 K | 785.15
303.15 K | 780.83
308.15 K | 776.48
313.15 K | 772.09
318.15 K | 767.65
323.15 K | 763.17
328.15 K | 758.63
333.15 K | 754.01
